Entries after “also recorded” stand apart in the source; their conditions may differ. Peptide text beside a SMILES is read from it.
What was measured:
[1] = tested on: squamous-cell oesophageal cancer; format: in vivo, human
Experimental: The disease was manifested by retrosternal pain, weakness, weight loss. […] Prior to chemoradiotherapy, the patient was given the hexapeptide in the form of a suppository at a dose of 5 mg five times daily for 5 days. The first stage of combined-modality treatment consisted of two courses of polychemotherapy. During the whole period of chemoradiotherapy, the patient received treatment with the proposed agent in the form of rectal suppositories 5 μg twice daily (in the morning and evening).

[2] = tested on: P-gp; test: calcein formation rate from calcein AM in R388VR cells without Co2+; details: up to 1.2 μM
Description: The rate of calcein formation in the dish with calcein AM added without Co2+ ions makes it possible to determine the activity of the transport proteins expelling calcein AM out of cells, rather than that of the proteins capable of transporting calcein from the cells (MRP), since in this case total calcein is registered: both intra- and extracellular.

[3] = allergic activity
[4] = in vivo
[5] = tested on: Hep-2 cells; test: growth of Hep-2 tumour cells (trypan blue count); format: cell-based, human; details: 1 μg/ml, three days
Experimental: Human laryngeal cancer cells Hep-2 in DMEM medium supplemented with 10% foetal calf serum and 40 μg/ml gentamycin were inoculated in 2-ml penicillin-containing vials, 200 thousand per each vial. The hexapeptide at a dose of 1 μg/ml was added 3 hours after cell inoculation (when they had already adhered to glass) and left in the medium for the whole period of incubation. Three days after inoculation, the cells were detached from glass with trypsin, followed by calculating the number of the living cells: unstained with a 0.04% solution of trypan blue.

[6] = tested on: human laryngeal cancer cells Hep-2; test: survival of Hep-2 cells exposed to arsenate (crystal violet); format: cell-based
Experimental: The human laryngeal cancer cells Hep-2 in Dulbecco's modified Eagle's medium (hereinafter referred to as DMEM) (Sigma) supplemented with 10% foetal calf serum (Sigma) and 40 μg/ml of gentamycin (Sigma) were sown in a 96-well culture plate, 0.1 ml per well, at a concentration of 50,000/ml, followed by adding the agents being examined and incubating for 72 hour at 37° C. in an atmosphere of 5% CO2 in air. After incubation, the cells were stained with 0.02% crystal violet solution (Sigma) in 20% ethanol for 10 minutes followed by discarding the stainer solution, washing the cells with water and adding a 0.1% SDS solution for the extraction of the stainer from the cells. The optical density was measured at 570 nm on the spectrophotometer Multiscan Plus. The effect was determined by the formula: No/Nk=(Do−D)/(Dk−D) 100%, where Do, Dk, D are optical densities in the experiment, control, and the background one, respectively, and No/Nk is the cell survival rate: the number of the live cells in the experiment in relation to the control.

[7] = target: T1, MRP (Mus musculus, UniProt O35379); test: calcein formation rate in R388VR cells in the presence of Co2+ (extracellular calcein quenching); details: presence of Co, 12 μM
[8] = local irritating effect; details: in vivo
[9] = tested on: multidrug resistance-associated transport proteins in Hep-2 cells; test: rhodamine 123 efflux rate from Hep-2 cells
Experimental: While studying the effect of the inhibitors on the release of Rh123, to the cuvette after several minutes of the normal excretion of the stainer we added the inhibitor in the required concentration. Determining the control and inhibited constants of rhodamine excretion rates on one plate decreases the error of determining their ratio, necessary for obtaining the R value. […] The total amount of rhodamine in the cells was determined by the difference of the fluorescence levels after adding digitonin and before adding cells to the cuvette. The relative amount of Rh123 in the cells (N) was determined according to the following formula: N=1−{It−I0/Imax−I0}, where It, I0, Imax are the values of fluorescence of Rh123 in the medium at the time moments t, 0 and the peak fluorescence after adding digitonin, respectively.
The effect of each concentration of the agents on Rh123 excretion was determined in several experiments.

[10] = target: T1, MRP; test: calcein efflux rate from preliminarily calcein-loaded R388VR cells
[11] = tested on: stage III cervical carcinoma; test: clinical case, chemoradiotherapy with hexapeptide (Example 5); format: in vivo, human
Experimental: Patient. Clinical diagnosis: stage III cervical carcinoma (T3NX-1M0). Examination of the patient included clinical and laboratory assessment both at admission and during treatment. […] general condition was of moderate severity. […] The percentage of CD3, CD4, CD8, CD16-positive cells was decreased relative to the average statistical normal values 2-fold. The person prior to antineoplastic treatment had received a course of 5-time administration of the hexapeptide in the form of 1 ml of 0.005% solution subcutaneously daily for 5 days. Chemoradiotherapy was carried out according to the regimen: 500 mg of 5-fluorouracil (total dose 2,500 mg). During the whole course of chemoradiotherapy, the person received 1 ml of 0.005% solution of the hexapeptide (biopoetin) 5 times daily. Two days after discontinuation of 5-fluorouracil, the patient underwent remote irradiation at a single dose of 4 Gy on the background of intravenous administration of 30 mg of cysplastin for 3 days (total dose of cysplastin amounting to 90 mg). Then radiotherapy was continued in the mode of a daily multifractionated dose. Irradiation was carried out up to a focal dose of 20 Gy onto the area of the primary focus and zones of regional metastatic spreading, followed by additional intracavitary gamma-therapy (10 fractions 5 Gy each) and remote irradiation was continued onto the zones of parametrial metastatic spreading up to the total dose amounting to 44 Gy.

[12] = tested on: breast cancer T4cN2M0; test: clinical case, radiotherapy and CMF polychemotherapy with hexapeptide intranasal spray (Example 8); format: in vivo, human
Description: Onto the area of the left breast from two tangential opposed fields and with the figured field onto the zones of regional lymph outflow on the left radiotherapy was begun using linear accelerator (LU-20-SL with the deceleration-radiation energy of 6 MeV) in the mode of average dose fractionating, at 3 Gy daily 5 times a week onto the area of the tumour up to the total focal dose (TFD) 45 Gy equivalent to the mode of the conventional fractionation consisting of 2 Gy a day, with TFD 60 Gy, and onto the zones of regional lymph outflow on the left (supraclavicular, subclavicular, axillary and parasternal sites) at a single dose of 3 Gy up to the TFD 33-36 Gy equivalent to 44-48 Gy of the conventional fractionation.
The patient's state after the irradiation course was satisfactory, with the tumour ulceration being at the scarring stage and virtually no discharge. Two weeks later, polychemotherapy was begun according to the CMF regimen carried out for 4 weeks once a week. During 5 days prior to commencing chemotherapy, the person daily received the hexapeptide in the form of an intranasal dosed spray […] at a single dose of 100 μg. The CMF regimen included intravenous drip administration of 1 g of 5-fluorouracil and 40 mg of methotrexate and intramuscular administration of 1 g cyclophosphane. During polychemotherapy, the patients daily received the hexapeptide in the form of an intranasal dosed spray, with the single dose equalling 100 μg.
A repeat course of CMF. The patient received intravenously 40 mg of methotrexate and 1 g of 5-fluorouracil and intramuscularly 1 g of cyclophosphane. The state after polychemotherapy was satisfactory. A cicatrix formed on the site of the previous breast ulceration. Regional lymph nodes were not perceived, the breast was soft to the touch, with no fresh infiltrates. On the mammograms, the tumour node as compared with the findings of mammography obtained at the beginning of treatment had decreased to 5 mm in diameter. Then sequentially a course of polychemotherapy was carried out according to the same regimen and in the same doses. During 5 days prior to commencing chemotherapy, the patient daily received hexapeptide in the form of an intranasal dosed spray 5 times a day at a single does of 100 μg. During polychemotherapy, the patient daily received hexapeptide in the form of an intranasal dosed spray 5 times a day at a single does of 100 μg.

[13] = tested on: stage III oesophageal cancer; format: in vivo, human
Experimental: Clinical diagnosis: stage III oesophageal cancer (T3-4N0-2MOP3). At admission, the patient's general condition of moderate severity. The laboratory indices of the total blood count without pronounced alterations. Noted was a considerable disbalance of the indices of the oxidative-antioxidative system on the background moderate-degree immunosuppression. The state of the oxidative-antioxidative system in the patients was assessed by intensity of lipid peroxidation via measuring blood serum concentration of malonic dialdehyde (MDA, μmol/L) and endogenous antioxidants: lactoferrin (LF, mg/L), caeruloplasmin (CP, conventional units), and the antioxidant enzyme catalase (CAT, conventional units). The analysis of percentage content of the main subpopulations of T-lymphocytes was carried out to superficial receptors of CD3 (T-lymphocytes), CD4 (T-helpers/inducers), CD8 (T-suppressors/cytotoxic lymphocytes), CD16 (natural killers), CD25 (activated lymphocytes expressing the receptor to interleukin-2), CD72 (B-lymphocytes). […] At the same time, the indices of the lymphocytic link were virtually within the normal values. Since CP and LF are proteins of the acute phase of inflammation, an increase in the blood serum reflected the presence of an inflammatory process accompanying the development of oesophageal cancer. Prior to chemoradiotherapy, the patient received intramuscular administration of the hexapeptide daily at a single dose of 1 ml of 0.1% solution 5 times a day for 5 days. Comprehensive chemoradiotherapy was carried out according to the following regimen: 750 mg of 5-fluorouracil (5-FU) was administered intravenously for 5 days (total dose 3,750 mg), two days after the end of administration of 5-FU, the patients was irradiated according to the regimen of dynamic fractionation of the dose at a single dose of 4 Gy on the background of intravenous administration of cysplastin at a dose of 30 mg for 3 days (total dose of cysplastin 90 mg, total focal dose 12 Gy). During the whole period of chemoradiotherapy, the patients was given hexapeptide at a single dose of 100 μg twice daily (in the morning and evening). Commencing from day 11, radiotherapy was continued in the mode of the classical fractionated dose, with the single dose equalling 2 Gy (total focal dose 40 Gy).

[14] = solubility of the active principle; format: physicochemical
[15] = preclinical and clinical studies: toxic reaction and side effects; format: in vivo
[16] = tested on: multidrug resistance proteins in the Hep-2 cells; test: calcein formation rate in Hep-2 cells with Co2+ ions; format: cell-based, human; set-up: calcein formation rate increment ratio: dose or concentration left out as unconfirmed; details: Co2+ ions present
[17] = mutagenic activity
[18] = tested on: tumour cells; details: calcium channel blocker; cited from earlier work

T1 sequence (O35379 whole entry): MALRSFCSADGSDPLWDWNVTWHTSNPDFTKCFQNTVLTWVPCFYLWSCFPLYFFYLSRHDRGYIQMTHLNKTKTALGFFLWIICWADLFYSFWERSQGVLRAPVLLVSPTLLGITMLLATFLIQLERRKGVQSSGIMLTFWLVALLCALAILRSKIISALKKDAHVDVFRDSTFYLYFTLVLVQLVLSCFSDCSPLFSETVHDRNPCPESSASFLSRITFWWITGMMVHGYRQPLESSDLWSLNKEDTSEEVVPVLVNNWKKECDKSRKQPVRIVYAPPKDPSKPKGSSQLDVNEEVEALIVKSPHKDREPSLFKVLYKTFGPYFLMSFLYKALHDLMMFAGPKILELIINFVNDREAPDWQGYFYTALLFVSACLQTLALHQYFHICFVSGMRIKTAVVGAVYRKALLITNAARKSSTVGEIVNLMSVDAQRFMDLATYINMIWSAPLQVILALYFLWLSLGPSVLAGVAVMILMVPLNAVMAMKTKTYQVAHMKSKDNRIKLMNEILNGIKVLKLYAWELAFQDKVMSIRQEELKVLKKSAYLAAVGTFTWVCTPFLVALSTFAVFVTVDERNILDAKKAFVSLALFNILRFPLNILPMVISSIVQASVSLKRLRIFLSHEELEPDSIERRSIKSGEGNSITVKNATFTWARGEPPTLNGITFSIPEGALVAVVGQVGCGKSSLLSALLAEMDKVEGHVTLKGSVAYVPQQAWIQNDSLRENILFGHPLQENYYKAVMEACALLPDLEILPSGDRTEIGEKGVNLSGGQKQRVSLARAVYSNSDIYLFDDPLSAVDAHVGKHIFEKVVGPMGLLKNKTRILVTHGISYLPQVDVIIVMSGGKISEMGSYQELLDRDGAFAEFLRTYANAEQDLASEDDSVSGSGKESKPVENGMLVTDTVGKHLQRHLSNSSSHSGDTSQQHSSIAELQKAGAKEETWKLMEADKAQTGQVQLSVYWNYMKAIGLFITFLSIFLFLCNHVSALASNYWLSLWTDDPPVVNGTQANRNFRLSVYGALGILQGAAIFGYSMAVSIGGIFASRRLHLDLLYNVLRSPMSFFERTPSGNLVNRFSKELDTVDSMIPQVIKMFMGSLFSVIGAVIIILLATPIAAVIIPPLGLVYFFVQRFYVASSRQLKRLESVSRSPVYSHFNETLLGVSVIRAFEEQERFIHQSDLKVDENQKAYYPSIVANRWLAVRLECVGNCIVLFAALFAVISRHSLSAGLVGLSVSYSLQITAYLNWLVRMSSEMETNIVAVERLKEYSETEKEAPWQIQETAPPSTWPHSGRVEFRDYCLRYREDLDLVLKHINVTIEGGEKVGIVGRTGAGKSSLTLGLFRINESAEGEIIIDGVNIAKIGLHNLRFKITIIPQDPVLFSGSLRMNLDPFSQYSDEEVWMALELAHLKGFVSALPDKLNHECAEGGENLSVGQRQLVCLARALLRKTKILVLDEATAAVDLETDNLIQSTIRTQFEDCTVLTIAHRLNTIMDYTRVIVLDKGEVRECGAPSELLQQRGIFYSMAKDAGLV

NCCCC[C@H](NC(=O)CNC(=O)[C@H](Cc1c[nH]cn1)NC(=O)[C@@H](N)CCCCN)C(=O)N[C@@H](Cc1c[nH]cn1)C(=O)NCC(=O)O [hexapeptide, lysyl-histidyl-glycyl-lysyl-histidyl-glycine] (H-KHGKHG-OH)
tumour at check-up examinations ([1]; after polychemotherapy): no oesophageal tumour perceived | metastases into lymph nodes ([1]; histology of subtotal oesophageal resection): No metastases into lymph nodes were detected | manifestations of toxicosis during polychemotherapy ([1]; human, in vivo): No markedly pronounced manifestations of toxicosis were observed | effect on calcein formation rate [2]: does not act upon the calcein formation rate | allergic activity [3]: neither allergic nor mutagenic activity | death of laboratory animals after a single dose [4]: caused no death | effect on growth of Hep-2 tumour cells [5]: virtually does not influence the growth | increase in sensitivity of Hep-2 cells to arsenate ([6]; 1.2 nM): 3 fold | effect on sensitivity to arsenate and survival of Hep-2 cells ([6]; 50 μM arsenate): increases sensitivity of the tumour cells to the cytostatic preparation arsenate and inhibits survival of the Hep-2 cells | increase of calcein formation rate [7]: double | local irritating effect [8]: no local irritating effect | optimal concentration of maximal inhibition of Rh123 excretion [9]: 1 ng/mL | R value (Rh123 excretion inhibition) ([9]; 1 ng/ml): 3.2 | decrease of calcein excretion rate ([10]; 1.2 nM): 1.5 fold | calcein excretion rate inhibition ratio ([10]; 120 nM): 2.6 | MDR development [11]: No events of MDR development were observed | indices of immunity and total blood count after chemoradiotherapy [11]: did not virtually alter | tumour outcome [11]: complete resorption of the tumour | side reactions during chemoradiotherapy ([11]; 1 ml of 0.005% solution subcutaneously): No pronounced side reactions were observed | development of MDR ([12]; 5th course of CMF): No development of MDR was noted | tumour node diameter on mammograms ([12]; after repeat course of CMF): 5 mm | tumour node size on mammograms ([12]; before fourth course of polychemotherapy): 3.8 cm | relapse or metastases at examination ([12]; clinical and roentgenological study, check-up 15 months after the beginning of treatment): no findings suggesting either a breast tumour relapse or metastases; also recorded: no signs of the disease's relapses | tolerance of chemoradiotherapy / polychemotherapy ([12]; intranasal dosed spray, CMF regimen): tolerated chemoradiotherapy satisfactorily; also recorded: well tolerated | disease relapses ([13]; 12-month follow-up): no disease relapses | indices of natural cellular and T-lymphocytic immunity, acute inflammation phase proteins ([13]; human, in vivo): did not alter substantially | symptoms of MDR ([13]; with chemoradiotherapy): No symptoms of MDR were observed | tumour outcome ([13]; with chemoradiotherapy): complete resorption of the tumour | solubility in alcohol ([14]; alcohol): not alcohol- or chloroform-soluble | solubility in chloroform ([14]; chloroform): not alcohol- or chloroform-soluble | solubility in isotonic sodium chloride solution ([14]; isotonic sodium chloride solution): readily soluble | solubility in water ([14]; water): readily soluble | toxic reaction and side effects [15]: neither induces a pronounced toxic reaction nor leads to development of side effects | calcein formation rate increment ratio [16]: 2.6 | increase of rate of calcein formation in cells ([16]; 1.2 nM): twofold | mutagenic activity [17]: neither allergic nor mutagenic activity

COc1ccc(CCN(C)CCCC(C#N)(c2ccc(OC)c(OC)c2)C(C)C)cc1OC (stereo not shown) [verapamil]
dose exhibiting in vitro MDR inhibiting activity [18]: approximately 10 μM
